Our source for the logD and Papp values is ChEMBL document CHEMBL1255222, “Exploring the neuroleptic substituent in octoclothepin: potential ligands for positron emission tomography with subnanomolar affinity for α(1)-adrenoceptors” (J Med Chem, 2010).

Series [1] can be described thus: physchem. The note with it: octanol/water.
The nature of series [2]: Apparent permeability across human Caco-2 cells. It is filed as ADME, cell-based. On the technique in general: Caco-2 cells form a polarised layer with tight junctions and transporters.

Consider `CN1CCC(c2cn(-c3ccc(F)cc3)c3ccc(-c4cncnc4)cc23)CC1`, for which the logD (usually the decadic logarithm of the distribution of all forms, ionised or not, between an organic phase and buffer at a given pH) in series [1] was found to be 1.9. Also, the apparent permeability (Papp) (in general, the rate of passage across a membrane or cell layer, normalised by area and donor concentration) in series [2] came out at 13 ×10⁻⁶ cm/s.
In series [1], `Cn1nnc(-c2ccc3c(c2)c(C2CCN(CCN4CCNC4=O)CC2)cn3-c2ccc(F)cc2)n1` displayed a pH-dependent lipophilicity (logD) of 3.06. For the same molecule, the Papp in series [2] amounted to 12 ×10⁻⁶ cm/s.
In turn, `CC(=O)NCc1ccc2c(c1)C(N1CCN(C)CC1)Cc1ccccc1S2` (racemic) displayed a pH-dependent lipophilicity (logD) in series [1] of 2.65. Besides, in series [2], the apparent permeability coefficient (Papp) turned out to be 33 ×10⁻⁶ cm/s.
Taken in the same sequence, the figures for `CC(C)C(=O)NCc1ccc2c(c1)C(N1CCN(C)CC1)Cc1ccccc1S2` (racemic) were 3.1 and 57 ×10⁻⁶ cm/s.
As to `CCN1CCC[C@H]1CNC(=O)c1c(O)c(Cl)cc(Cl)c1OC` [RACLOPRIDE], the apparent permeability (Papp) in series [2] stood at 66 ×10⁻⁶ cm/s.
